Measurements taken from PubChem BioAssay AID256 (DTP/NCI, 2004).
Where “and” joins values, the source holds several entries; their conditions need not be identical. Equal values may be shown once. Toxic doses and inconclusive results are not listed.

Test system: CD2F1 mice, L1210 leukemia ip, survival T/C
Assay: NCI In Vivo Anticancer Drug Screen. Data for tumor model L1210 Leukemia (intraperitoneal) in CD2F1 (CDF1) mice
Settings: higher = longer survival
Method in brief: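 Mice carrying a transplanted tumor received test compound or vehicle alone. The value is the measurement in the treated group divided by that in the vehicle-treated control group.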

[1] = endpoint: mean survival time, dose: 6.25 mg/kg/injection, schedule: Q01DX001 (ip), vehicle: saline with Tween-80
[2] = endpoint: mean survival time, dose: 100.0 mg/kg/injection, schedule: Q01DX009 (ip), vehicle: saline with Tween-80
[3] = endpoint: mean survival time, dose: 100.0 mg/kg/injection, schedule: Q04DX003 (ip), vehicle: saline with Tween-80
[4] = endpoint: mean survival time, dose: 200.0 mg/kg/injection, schedule: Q01DX009 (ip), vehicle: saline with Tween-80
[5] = endpoint: mean survival time, dose: 200.0 mg/kg/injection, schedule: Q04DX003 (ip), vehicle: saline with Tween-80
[6] = endpoint: mean survival time, dose: 400.0 mg/kg/injection, schedule: Q04DX003 (ip), vehicle: saline with Tween-80
[7] = endpoint: mean survival time, dose: 400.0 mg/kg/injection, schedule: Q01DX009 (ip), vehicle: saline with Tween-80
[8] = endpoint: mean survival time, dose: 12.5 mg/kg/injection, schedule: Q01DX009 (ip), vehicle: Klucel (hydroxypropylcellulose) (HPC)
[9] = endpoint: mean survival time, dose: 25.0 mg/kg/injection, schedule: Q01DX009 (ip), vehicle: Klucel (hydroxypropylcellulose) (HPC)
[10] = endpoint: mean survival time, dose: 50.0 mg/kg/injection, schedule: Q01DX009 (ip), vehicle: Klucel (hydroxypropylcellulose) (HPC)
[11] = endpoint: mean survival time, dose: 100.0 mg/kg/injection, schedule: Q01DX009 (ip), vehicle: Klucel (hydroxypropylcellulose) (HPC)

O=C(NCc1ccccc1)c1ccc([N+](=O)[O-])cc1
T/C (endpoint: mean survival time, dose: 100.0 mg/kg/injection, schedule: Q04DX002 (ip), vehicle: other): 97 % of control | T/C (endpoint: mean survival time, dose: 200.0 mg/kg/injection, schedule: Q04DX002 (ip), vehicle: other): 101 % of control | T/C (endpoint: mean survival time, dose: 400.0 mg/kg/injection, schedule: Q04DX002 (ip), vehicle: other): 97 % of control

N#CC1(C#N)OC1(C#N)c1ccccc1 (stereo unspecified)
T/C (endpoint: mean survival time, dose: 3.0 mg/kg/injection, schedule: Q01DX009 (ip), vehicle: saline with Tween-80): 101 % of control | T/C [1]: 95 % of control | T/C (endpoint: mean survival time, dose: 12.0 mg/kg/injection, schedule: Q01DX009 (ip), vehicle: saline with Tween-80): 98 % of control

CC(=O)OC1CCCCC1C (stereo unspecified)
T/C [2]: 105 % of control | T/C [3]: 105 % of control | T/C [4]: 100 % of control | T/C [5]: 110 % of control | T/C [6]: 102 % of control

CC1(C)CC(Br)(Cc2ccccc2)C(=O)c2ccccc21 (stereo unspecified)
T/C [2]: 95 % of control | T/C [4]: 94 % of control | T/C [7]: 94 % of control

COc1ccc(-c2nc3ccccc3nc2-c2ccc(OC)cc2)cc1
T/C [3]: 94 % of control | T/C [5]: 94 % of control

C=CCOc1cccc[n+]1CC(=O)CC(O)(C(F)(F)F)C(F)(F)F
T/C [3]: 95 % of control | T/C [5]: 92 % of control | T/C [6]: 97 % of control

CN(C)C(=O)C(=O)C1C=Cc2ccccc21 (stereo unspecified)
T/C [2]: 98 % of control | T/C [4]: 103 % of control | T/C [7]: 93 % of control

COc1ccc(OC)c(C(=O)CC(O)(C(F)(F)F)C(F)(F)F)c1
T/C [2]: 97 % of control | T/C [4]: 101 % of control | T/C [7]: 97 % of control

Cc1ccc(S(=O)(=O)N/N=C/c2ccccc2Cl)cc1
T/C [8]: 93 % of control | T/C [9]: 91 % of control | T/C [10]: 90 % of control | T/C [11]: 98 % of control

Nc1cc(=O)[nH]c(=S)[nH]1.[Pd]
T/C (endpoint: mean survival time, dose: 3.13 mg/kg/injection, schedule: Q04DX003 (ip), vehicle: distilled water + Tween-80): 100 % of control | T/C (endpoint: mean survival time, dose: 6.25 mg/kg/injection, schedule: Q04DX003 (ip), vehicle: distilled water + Tween-80): 100 % of control | T/C (endpoint: mean survival time, dose: 12.5 mg/kg/injection, schedule: Q04DX003 (ip), vehicle: distilled water + Tween-80): 103 % of control | T/C (endpoint: mean survival time, dose: 25.0 mg/kg/injection, schedule: Q04DX003 (ip), vehicle: distilled water + Tween-80): 97 % of control | T/C (endpoint: mean survival time, dose: 50.0 mg/kg/injection, schedule: Q04DX003 (ip), vehicle: distilled water + Tween-80): 97 % of control | T/C (endpoint: mean survival time, dose: 100.0 mg/kg/injection, schedule: Q04DX003 (ip), vehicle: distilled water + Tween-80): 96 % of control | T/C (endpoint: mean survival time, dose: 200.0 mg/kg/injection, schedule: Q04DX003 (ip), vehicle: distilled water + Tween-80): 91 % of control

Nc1nc(N)c(-c2ccc(Cl)c(Cl)c2)c(CBr)n1
T/C (endpoint: mean survival time, dose: 12.5 mg/kg/injection, schedule: Q01DX009 (ip), vehicle: saline with Tween-80): 102 % of control | T/C (endpoint: mean survival time, dose: 25.0 mg/kg/injection, schedule: Q01DX009 (ip), vehicle: saline with Tween-80): 105 % of control

CCCCCOS(=O)(=O)c1ccc(Cl)c([N+](=O)[O-])c1
T/C [3]: 98 % of control

O=Cc1ccccc1
T/C [8]: 101 % of control | T/C [9]: 95 % of control and 102 % of control | T/C [10]: 96 % of control and 100 % of control | T/C [11]: 97 % of control and 102 % of control | T/C (endpoint: mean survival time, dose: 200.0 mg/kg/injection, schedule: Q01DX009 (ip), vehicle: Klucel (hydroxypropylcellulose) (HPC)): 97 % of control and 105 % of control | T/C (endpoint: mean survival time, dose: 400.0 mg/kg/injection, schedule: Q01DX009 (ip), vehicle: Klucel (hydroxypropylcellulose) (HPC)): 92 % of control and 93 % of control

C=C1C(=O)OC2C1C(OC(=O)/C(=C/C)COC(C)=O)CC1(CO1)C1C(OC(=O)/C(=C/C)CO)C=C(C)C21 (stereo unspecified)
T/C (endpoint: mean survival time, dose: 100.0 mg/kg/injection, schedule: Q01DX001 (ip), vehicle: saline with Tween-80): 88 % of control | T/C (endpoint: mean survival time, dose: 400.0 mg/kg/injection, schedule: Q01DX001 (ip), vehicle: saline with Tween-80): 93 % of control

CCN(CC)CCn1[nH]c2c3ccc(=O)cc3sc3c(NCCN)ccc1c32
T/C (endpoint: median survival time, dose: 1.5 mg/kg/injection, schedule: Q01DX009 (ip), vehicle: water): 168 % of control | T/C (endpoint: median survival time, dose: 1.56 mg/kg/injection, schedule: Q01DX005 (ip), vehicle: water): 154 % of control | T/C (endpoint: median survival time, dose: 3.0 mg/kg/injection, schedule: Q01DX005 (ip), vehicle: water): 183 % of control | T/C (endpoint: median survival time, dose: 3.0 mg/kg/injection, schedule: Q01DX009 (ip), vehicle: water): 180 % of control | T/C (endpoint: median survival time, dose: 3.12 mg/kg/injection, schedule: Q01DX005 (ip), vehicle: water): 192 % of control and 244 % of control | T/C (endpoint: median survival time, dose: 6.0 mg/kg/injection, schedule: Q01DX005 (ip), vehicle: water): 152 % of control | T/C (endpoint: median survival time, dose: 6.0 mg/kg/injection, schedule: Q01DX009 (ip), vehicle: water): 216 % of control | T/C (endpoint: median survival time, dose: 6.25 mg/kg/injection, schedule: Q01DX005 (ip), vehicle: water): 186 % of control and 357 % of control | T/C (endpoint: median survival time, dose: 12.0 mg/kg/injection, schedule: Q01DX005 (ip), vehicle: water): 95 % of control | T/C (endpoint: median survival time, dose: 12.0 mg/kg/injection, schedule: Q01DX009 (ip), vehicle: water): 216 % of control | T/C (endpoint: median survival time, dose: 12.5 mg/kg/injection, schedule: Q01DX005 (ip), vehicle: water): 231 % of control and 357 % of control

N#CC1(C#N)OC(C#N)(C#N)c2ccccc21
T/C [1]: 102 % of control | T/C (endpoint: mean survival time, dose: 12.5 mg/kg/injection, schedule: Q01DX001 (ip), vehicle: saline with Tween-80): 98 % of control | T/C (endpoint: mean survival time, dose: 25.0 mg/kg/injection, schedule: Q01DX001 (ip), vehicle: saline with Tween-80): 98 % of control
